Data published in US10016397B2, “Selective AT2 receptor agonists for use in treatment of cachexia” (Charité-Universitaetsmedizin Berlin, priority 2013, dated 2018).

Columns and labels:
[1] = test system: ascites hepatoma Yoshida AH-130 cells inoculated into male Wistar rats; assay: AH-130 Yoshida hepatoma cancer cachexia rat model; details: for survival / mortality (Kaplan Meier): low dose 0.2 mg/kg/day
Text: Use of an ACE inhibitor blocks all activation of both the AT1 and AT2 receptors, therefore inhibiting the beneficial effects of angiotensin II mediated activation of the AT2 receptor.
(§1) The ascites hepatoma Yoshida AH-130 cells (10^8) were inoculated into approx. 200 g male Wistar rats. Alternatively animals received saline injection only (sham). The animals were housed in groups of three. The day after inoculation animals were randomized into various groups as described in the methods. […] The primary endpoints of the study included survival and quality of life. Secondary endpoints included body weight and body composition as well as organ weight, which were assessed at the end of the study (or after death).
as §1, with “randomized.” for “randomized into various groups as described in the methods.”

[2] = biological target: AT1 receptor; details: read-out: Ki for AT1 receptor; cited from earlier work
[3] = 0.2 mg/kg/d, vs placebo, listed as Compound-21
[4] = 0.2 mg/kg/d, vs placebo, listed as compound-21
[5] = high dose 1.0 mg/kg/d, vs placebo, listed as Compound-21, 1 mg/kg/day
[6] = high dose 1.0 mg/kg/d, vs placebo, listed as compound-21, 1 mg/kg/day

CCCCOC(=O)NS(=O)(=O)c1sc(CC(C)C)cc1-c1ccc(Cn2ccnc2)cc1 [Compound 21]
change in body weight during the experiment [1, 3]: significantly reduced loss of body weight | food intake on day 11 after tumor inoculation [1, 3]: significantly increased food intake | heart weight at the end of the study [1, 3]: significantly increased heart weight | spontaneous locomotor activity on day 11 after tumor inoculation [1, 3]: significantly increased activity | weight of brown adipose tissue (BAT) at the end of the study [1, 3]: significantly increased BAT weight | weight of the fast fiber type EDL at the end of the study [1, 3]: significantly increased EDL weight | weight of the mixed fiber type gastrocnemius at the end of the study [1, 3]: significantly increased gastrocnemius weight | weight of the slow fiber type soleus at the end of the study [1, 3]: significantly increased soleus weight | weight of white adipose tissue (WAT) epididymal fat at the end of the study [1, 3]: significantly increased WAT weight | change in body weight during the experiment [1, 4]: attenuated | food intake on day 11 after tumor inoculation [1, 4]: significantly improved | heart weight at the end of the study [1, 4]: improved | spontaneous locomotor activity on day 11 after tumor inoculation [1, 4]: significantly improved | weight of brown adipose tissue (BAT) at the end of the study [1, 4]: improved | weight of the fast fiber type EDL at the end of the study [1, 4]: higher compared to placebo | weight of the mixed fiber type gastrocnemius at the end of the study [1, 4]: higher compared to placebo | weight of the slow fiber type soleus at the end of the study [1, 4]: higher compared to placebo | weight of white adipose tissue (WAT) epididymal fat at the end of the study [1, 4]: improved | weight of the fast fiber type EDL at the end of the study [1, 5]: also improved EDL weight | weight of the slow fiber type soleus at the end of the study [1, 5]: also improved soleus weight | weight of the fast fiber type EDL at the end of the study [1, 6]: also improved | weight of the slow fiber type soleus at the end of the study [1, 6]: also improved | toxicity at higher dose ([1]; higher dose 1.0 mg/kg/d): toxic effects | survival (Kaplan Meier) ([1]; higher dose 1.0 mg/kg/d, vs placebo): not effective | survival / mortality (Kaplan Meier) ([1]; vs placebo, listed as Compound-21, 0.2 mg/kg/day): significantly reduced mortality | survival / mortality (Kaplan Meier) ([1]; vs placebo, listed as compound-21, 0.2 mg/kg/day): significantly improved survival | Ki [2]: > 10 µM

CCOC(=O)[C@H](CCc1ccccc1)N[C@@H](C)C(=O)N1C(=O)N(C)C[C@H]1C(=O)O [imidapril, reference compound]
quality of life (activity and food intake) ([1]; imidapril): did not improve quality of life | hazard ratio and survival ([1]; imidapril, compared to untreated tumor-bearing animals): worse hazard ratio and survival | body weight loss ([1]; imidapril, vs untreated tumor-bearing animals): dose-dependent reduction of body weight loss
